Reference: patent US7285561B2, “Imidazo-substituted compounds as p38 kinase inhibitors” (Roche Palo Alto LLC, priority 2006, dated 2007)
Counter-ions that a name gives are not always drawn.

How the values were obtained:
p-38 MAP kinase = molecular target: T1, p-38 MAP kinase (Homo sapiens, UniProt Q16539); test: Inhibition of p-38 (MAP) kinase, in vitro assay (transfer of γ-phosphate from γ-33P-ATP to Myelin Basic Protein); format: biochemical; details: phosphorylated recombinant p38 MAP kinase; substrate MBP and γ-33P-ATP; 30° C.; read-out: IC50, the concentration causing 50% inhibition of the p-38 enzyme
T1 construct: made in house; host or cells: E. coli (co-expressed with SEK-1 and MEKK)
T1 sequence (Q16539 whole entry): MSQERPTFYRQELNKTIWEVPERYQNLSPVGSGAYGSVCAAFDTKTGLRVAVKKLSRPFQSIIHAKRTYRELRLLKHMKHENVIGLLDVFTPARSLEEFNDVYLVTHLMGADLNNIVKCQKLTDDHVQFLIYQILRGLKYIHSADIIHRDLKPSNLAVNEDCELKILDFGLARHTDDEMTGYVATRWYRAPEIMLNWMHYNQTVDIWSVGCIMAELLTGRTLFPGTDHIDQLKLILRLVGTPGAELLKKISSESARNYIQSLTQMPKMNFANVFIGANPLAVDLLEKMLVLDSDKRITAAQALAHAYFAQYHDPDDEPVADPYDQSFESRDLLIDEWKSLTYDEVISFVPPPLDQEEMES
Experimental: The p-38 MAP kinase inhibitory activity of compounds of this invention in vitro was determined by measuring the transfer of the γ-phosphate from γ-^33P-ATP by p-38 kinase to Myelin Basic Protein (MBP), using the a minor modification of the method described in Ahn, N. G.; et al. J. of Biol. Chem. Vol. 266(7), 4220-4227, (1991)
The phosphorylated form of the recombinant p38 MAP kinase was expressed with SEK-1 and MEKK in E. Coli (see, Khokhlatchev, A. et al. J. of Biol. Chem. Vol. 272(17), 11057-11062, (1997) and then purified by affinity chromatography using a Nickel column.
The phosphorylated p38 MAP kinase was diluted in kinase buffer (20 mM 3-(N-morpholino)propanesulfonic acid, pH 7.2, 25 mM β-glycerol phosphate, 5 mM ethylene glycol-bis(beta-aminoethyl ether)-N,N,N′,N′-tetraacetic acid, 1 mM sodium vanadate, 1 mM dithiothreitol, 40 mM magnesium chloride). Test compound dissolved in DMSO or only DMSO (control) was added and the samples were incubated for 10 min. at 30° C. The kinase reaction was initiated by the addition of a substrate cocktail containing MBP and γ-^33P-ATP. After incubating for an additional 20 min. at 30° C., the reaction was terminated by adding 0.75% phosphoric acid. The phosphorylated MBP was then separated from the residual γ-^33P-ATP using a phosphocellulose membrane (Millipore, Bedford, Mass.) and quantitated using a scintillation counter (Packard, Meriden, Conn.).

| SMILES | melting point [°C] | IC50 (p-38 MAP kinase) [nM] |
| --- | --- | --- |
| Clc1ccccc1-c1cc2cnc(NC3CCOCC3)nc2n2ccnc12 (as salt: HCl) [Compound 2] | 211 to 214 |  |
| CS(=O)(=O)N1CCC(Nc2ncc3cc(-c4ccccc4Cl)c4nccn4c3n2)CC1 [Compound 3] |  | 2.7 |
| O[C@H]1CC[C@H](Nc2ncc3cc(-c4ccccc4Cl)c4nccn4c3n2)CC1 [Compound 1] | 116 to 119 | 10 |
| CC(C)Nc1ncc2cc(-c3ccccc3Cl)c3nccn3c2n1 (as salt: HCl) [Compound 7] | 210 to 212.5 |  |
| CC(C)(CO)Nc1ncc2cc(-c3ccccc3Cl)c3nccn3c2n1 (as salt: HCl) [Compound 6] | 190.8 to 194.3 |  |
| O[C@H]1CC[C@H](Nc2ncc3c(n2)N2CCN=C2N(c2ccccc2Cl)C3)CC1 [Compound 12] |  | 6620 |
| O[C@H]1CC[C@H](Nc2ncc3c(n2)N2CCN=C2C(c2ccccc2Cl)=C3)CC1 [Compound 13] | 169.3 to 175.8 | 1140 |
| O=S1(=O)CCC(Nc2ncc3cc(-c4ccccc4Cl)c4nccn4c3n2)CC1 (as salt: HCl) [Compound 5] | 221.8 to 226.8 |  |
| CC(C)Nc1ncc2cc(-c3ccccc3Cl)c3nccn3c2n1 [Compound 7] |  | 1.4 |
| CC(C)(CO)Nc1ncc2cc(-c3ccccc3Cl)c3nccn3c2n1 [Compound 6] |  | 18.8 |
| Fc1ccc(CNc2ncc3cc(-c4ccccc4Cl)c4nccn4c3n2)cc1 (as salt: HCl) [Compound 8] | 178 to 180 |  |
| CS(=O)(=O)N1CCC(Nc2ncc3cc(-c4ccccc4Cl)c4nccn4c3n2)CC1 (as salt: HCl) [Compound 3] | 188 to 194 |  |
| CS(=O)(=O)CCNc1ncc2cc(-c3ccccc3Cl)c3nccn3c2n1 (as salt: HCl) [Compound 9] | 172.2 to 176 |  |
